PubChem BioAssay AID1259407 (Chemical Carcinogenesis Research Information System (CCRIS), 2018)
Activity calls are given as the source filed them. The rule behind the calls is not given here.

Tested on: CCRIS mutagenicity, Ames/micronucleus/aberration tests
Test: CCRIS mutagenicity studies
[1] = Test System: AMES SALMONELLA TYPHIMURIUM, Strain/Indicator: TA98, Metabolic Activation: NONE, Method: PREINCUBATION
[2] = Test System: AMES SALMONELLA TYPHIMURIUM, Strain/Indicator: TA100, Metabolic Activation: NONE, Method: PREINCUBATION
[3] = Test System: AMES SALMONELLA TYPHIMURIUM, Strain/Indicator: TA1535, Metabolic Activation: NONE, Method: PREINCUBATION
[4] = Test System: AMES SALMONELLA TYPHIMURIUM, Strain/Indicator: TA98, Metabolic Activation: NONE, Method: STANDARD PLATE
[5] = Test System: AMES SALMONELLA TYPHIMURIUM, Strain/Indicator: TA98, Metabolic Activation: RAT, LIVER, S-9, AROCLOR 1254, Method: STANDARD PLATE
[6] = Test System: AMES SALMONELLA TYPHIMURIUM, Strain/Indicator: TA100, Metabolic Activation: NONE, Method: STANDARD PLATE
[7] = Test System: AMES SALMONELLA TYPHIMURIUM, Strain/Indicator: TA100, Metabolic Activation: RAT, LIVER, S-9, AROCLOR 1254, Method: STANDARD PLATE
[8] = Test System: AMES SALMONELLA TYPHIMURIUM, Strain/Indicator: TA1535, Metabolic Activation: NONE, Method: STANDARD PLATE
[9] = Test System: AMES SALMONELLA TYPHIMURIUM, Strain/Indicator: TA1537, Metabolic Activation: NONE, Method: STANDARD PLATE
[10] = Test System: AMES SALMONELLA TYPHIMURIUM, Strain/Indicator: TA1537, Metabolic Activation: RAT, LIVER, S-9, AROCLOR 1254, Method: STANDARD PLATE

Compound: Oc1cc2cc3ccccc3cc2c2ccccc12
- mutagenic call (Test System: CHINESE HAMSTER V-79, Strain/Indicator: V-79/8-AZAGUANINE, Metabolic Activation: NONE, Method: STANDARD PLATE): active; positive

Compound: CCNC(=O)CNC(=O)C=[N+]=[N-]
- mutagenic call (Test System: UDS RODENT CELLS, Strain/Indicator: THY INCORP (NON-S-PHASE), Metabolic Activation: NONE, Method: AUTORADIOGRAPHY): active; positive

Compound: Cc1ccccc1C(N)=O
- mutagenic call (Test System: AMES SALMONELLA TYPHIMURIUM, Strain/Indicator: TA97, Metabolic Activation: HAMSTER, LIVER, S-9, AROCLOR 1254 (10 OR 30%), Method: PREINCUBATION): inactive; negative
- mutagenic call (Test System: AMES SALMONELLA TYPHIMURIUM, Strain/Indicator: TA97, Metabolic Activation: NONE, Method: PREINCUBATION): inactive; negative
- mutagenic call (Test System: AMES SALMONELLA TYPHIMURIUM, Strain/Indicator: TA97, Metabolic Activation: RAT, LIVER, S-9, AROCLOR 1254 (10 OR 30%), Method: PREINCUBATION): inactive; negative
- mutagenic call (Test System: AMES SALMONELLA TYPHIMURIUM, Strain/Indicator: TA98, Metabolic Activation: HAMSTER, LIVER, S-9, AROCLOR 1254 (10 OR 30%), Method: PREINCUBATION): inactive; negative
- mutagenic call [1]: inactive; negative
- mutagenic call (Test System: AMES SALMONELLA TYPHIMURIUM, Strain/Indicator: TA98, Metabolic Activation: RAT, LIVER, S-9, AROCLOR 1254 (10 OR 30%), Method: PREINCUBATION): inactive; negative
- mutagenic call (Test System: AMES SALMONELLA TYPHIMURIUM, Strain/Indicator: TA100, Metabolic Activation: HAMSTER, LIVER, S-9, AROCLOR 1254 (10 OR 30%), Method: PREINCUBATION): inactive; negative
- mutagenic call [2]: inactive; negative
- mutagenic call (Test System: AMES SALMONELLA TYPHIMURIUM, Strain/Indicator: TA100, Metabolic Activation: RAT, LIVER, S-9, AROCLOR 1254 (10 OR 30%), Method: PREINCUBATION): inactive; negative
- mutagenic call (Test System: AMES SALMONELLA TYPHIMURIUM, Strain/Indicator: TA1535, Metabolic Activation: HAMSTER, LIVER, S-9, AROCLOR 1254 (10 OR 30%), Method: PREINCUBATION): inactive; negative
- mutagenic call [3]: inactive; negative
- mutagenic call (Test System: AMES SALMONELLA TYPHIMURIUM, Strain/Indicator: TA1535, Metabolic Activation: RAT, LIVER, S-9, AROCLOR 1254 (10 OR 30%), Method: PREINCUBATION): inactive; negative

Compound: C1COCOC1
- mutagenic call (Test System: AMES SALMONELLA TYPHIMURIUM, Strain/Indicator: TA98, Metabolic Activation: HAMSTER, LIVER, S-9, AROCLOR 1254, Method: PREINCUBATION): inactive; negative
- mutagenic call [1]: inactive; negative
- mutagenic call (Test System: AMES SALMONELLA TYPHIMURIUM, Strain/Indicator: TA98, Metabolic Activation: RAT, LIVER, S-9, AROCLOR 1254, Method: PREINCUBATION): inactive; negative
- mutagenic call (Test System: AMES SALMONELLA TYPHIMURIUM, Strain/Indicator: TA100, Metabolic Activation: HAMSTER, LIVER, S-9, AROCLOR 1254, Method: PREINCUBATION): inactive; negative
- mutagenic call [2]: inactive; negative
- mutagenic call (Test System: AMES SALMONELLA TYPHIMURIUM, Strain/Indicator: TA100, Metabolic Activation: RAT, LIVER, S-9, AROCLOR 1254, Method: PREINCUBATION): inactive; negative
- mutagenic call (Test System: AMES SALMONELLA TYPHIMURIUM, Strain/Indicator: TA1535, Metabolic Activation: HAMSTER, LIVER, S-9, AROCLOR 1254, Method: PREINCUBATION): inactive; negative
- mutagenic call [3]: inactive; negative
- mutagenic call (Test System: AMES SALMONELLA TYPHIMURIUM, Strain/Indicator: TA1535, Metabolic Activation: RAT, LIVER, S-9, AROCLOR 1254, Method: PREINCUBATION): inactive; negative
- mutagenic call (Test System: AMES SALMONELLA TYPHIMURIUM, Strain/Indicator: TA1537, Metabolic Activation: HAMSTER, LIVER, S-9, AROCLOR 1254, Method: PREINCUBATION): inactive; negative
- mutagenic call (Test System: AMES SALMONELLA TYPHIMURIUM, Strain/Indicator: TA1537, Metabolic Activation: NONE, Method: PREINCUBATION): inactive; negative
- mutagenic call (Test System: AMES SALMONELLA TYPHIMURIUM, Strain/Indicator: TA1537, Metabolic Activation: RAT, LIVER, S-9, AROCLOR 1254, Method: PREINCUBATION): inactive; negative

Compound: N#[N+]c1cccc2c1C(=O)c1ccccc1C2=O
- mutagenic call [4]: inactive; negative
- mutagenic call [5]: active; positive
- mutagenic call [6]: inactive; negative
- mutagenic call [7]: active; positive
- mutagenic call [8]: inactive; negative
- mutagenic call [9]: active; positive
- mutagenic call [10]: active; positive

Compound: CN(C)CCNC(=O)c1cccc2c1Oc1ccccc1O2
- mutagenic call [9]: active; positive

Compound: c1cc2c3c(c4c(ccc5ccccc54)cc3c1)[C@H]1O[C@@H]21
- mutagenic call [1]: active; positive
- mutagenic call [4]: active; positive
- mutagenic call [5]: active; positive
- mutagenic call (Test System: CHINESE HAMSTER OVARY, Strain/Indicator: V-79/6-THIOGUANINE, Metabolic Activation: NONE, Method: FLASK ASSAY): active; positive

Compound: C#C[C@]1(OC(C)=O)CC[C@H]2[C@@H]3CCC4=CC(=O)CC[C@@H]4[C@H]3CC[C@@]21C
- mutagenic call (Test System: AMES SALMONELLA TYPHIMURIUM, Strain/Indicator: TA97A, Metabolic Activation: NONE, Method: HOST-MEDIATED): inactive; negative
- mutagenic call (Test System: AMES SALMONELLA TYPHIMURIUM, Strain/Indicator: TA97A, Metabolic Activation: NONE, Method: STANDARD PLATE): inactive; negative
- mutagenic call (Test System: AMES SALMONELLA TYPHIMURIUM, Strain/Indicator: TA97A, Metabolic Activation: RAT, LIVER, S-9, PHENOBARBITONE, Method: PREINCUBATION): inactive; negative
- mutagenic call (Test System: AMES SALMONELLA TYPHIMURIUM, Strain/Indicator: TA98, Metabolic Activation: MOUSE, LIVER, S-9, Method: STANDARD PLATE): inactive; negative
- mutagenic call (Test System: AMES SALMONELLA TYPHIMURIUM, Strain/Indicator: TA98, Metabolic Activation: NONE, Method: HOST-MEDIATED): inactive; negative
- mutagenic call [4]: inactive; negative
- mutagenic call [5]: inactive; negative
- mutagenic call (Test System: AMES SALMONELLA TYPHIMURIUM, Strain/Indicator: TA98, Metabolic Activation: RAT, LIVER, S-9, PHENOBARBITONE, Method: PREINCUBATION): inactive; negative
- mutagenic call (Test System: AMES SALMONELLA TYPHIMURIUM, Strain/Indicator: TA100, Metabolic Activation: MOUSE, LIVER, S-9, Method: STANDARD PLATE): inactive; negative
- mutagenic call (Test System: AMES SALMONELLA TYPHIMURIUM, Strain/Indicator: TA100, Metabolic Activation: NONE, Method: HOST-MEDIATED): inactive; negative
- mutagenic call [6]: inactive; negative
- mutagenic call [7]: inactive; negative
- mutagenic call (Test System: AMES SALMONELLA TYPHIMURIUM, Strain/Indicator: TA100, Metabolic Activation: RAT, LIVER, S-9, PHENOBARBITONE, Method: PREINCUBATION): inactive; negative
- mutagenic call (Test System: AMES SALMONELLA TYPHIMURIUM, Strain/Indicator: TA1535, Metabolic Activation: MOUSE, LIVER, S-9, Method: STANDARD PLATE): inactive; negative
- mutagenic call (Test System: AMES SALMONELLA TYPHIMURIUM, Strain/Indicator: TA1535, Metabolic Activation: NONE, Method: HOST-MEDIATED): inactive; negative
- mutagenic call [8]: inactive; negative
- mutagenic call (Test System: AMES SALMONELLA TYPHIMURIUM, Strain/Indicator: TA1535, Metabolic Activation: RAT, LIVER, S-9, AROCLOR 1254, Method: STANDARD PLATE): inactive; negative
- mutagenic call (Test System: AMES SALMONELLA TYPHIMURIUM, Strain/Indicator: TA1535, Metabolic Activation: RAT, LIVER, S-9, PHENOBARBITONE, Method: PREINCUBATION): inactive; negative
- mutagenic call (Test System: AMES SALMONELLA TYPHIMURIUM, Strain/Indicator: TA1537, Metabolic Activation: MOUSE, LIVER, S-9, Method: STANDARD PLATE): inactive; negative
- mutagenic call [9]: inactive; negative
- mutagenic call [10]: inactive; negative
- mutagenic call (Test System: AMES SALMONELLA TYPHIMURIUM, Strain/Indicator: TA1538, Metabolic Activation: MOUSE, LIVER, S-9, Method: STANDARD PLATE): inactive; negative
- mutagenic call (Test System: AMES SALMONELLA TYPHIMURIUM, Strain/Indicator: TA1538, Metabolic Activation: NONE, Method: STANDARD PLATE): inactive; negative
- mutagenic call (Test System: AMES SALMONELLA TYPHIMURIUM, Strain/Indicator: TA1538, Metabolic Activation: RAT, LIVER, S-9, AROCLOR 1254, Method: STANDARD PLATE): inactive; negative
